The test system of one assay is CCK receptor. Particulars: background literature; cited from earlier work.
The test system of another assay is gastrin. The following applies: background literature; in vitro; cited from earlier work.
The next assay has as its target T1, CCK receptor, pancreas (Rattus norvegicus, UniProt P30551).
T1 construct: The whole pancreas was dissected free of fat tissue and was homogenized; from tissue; host or cells: rat pancreas membranes
T1 sequence (P30551 1-444): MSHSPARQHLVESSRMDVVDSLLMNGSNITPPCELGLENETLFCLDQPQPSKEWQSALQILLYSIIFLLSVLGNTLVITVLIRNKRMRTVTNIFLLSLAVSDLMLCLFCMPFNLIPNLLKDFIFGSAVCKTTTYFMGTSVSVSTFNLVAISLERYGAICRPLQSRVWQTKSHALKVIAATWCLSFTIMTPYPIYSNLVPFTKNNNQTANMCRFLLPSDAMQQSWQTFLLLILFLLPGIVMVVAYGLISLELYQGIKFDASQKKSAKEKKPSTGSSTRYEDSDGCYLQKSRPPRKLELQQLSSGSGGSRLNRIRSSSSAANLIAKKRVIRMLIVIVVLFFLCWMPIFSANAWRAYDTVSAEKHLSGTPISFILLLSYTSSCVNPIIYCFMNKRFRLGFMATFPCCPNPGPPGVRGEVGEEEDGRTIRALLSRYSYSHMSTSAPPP
Nature of the assay: CCK Receptor Binding (Pancreas): inhibition of 125I-CCK(-33) binding. Also noted: species or system rat (Male Sprague-Dawley). Particulars: protease inhibitors added to the binding assay. How it is done:
1. CCK Receptor Binding (Pancreas)
CCK-33 was radiolabeled with ^125 I-Bolton Hunter reagent (2000 Ci/mmole) as described by Sankara et al. (J. Biol. Chem. 254: 9349-9351, 1979). Receptor binding was performed according to Innis and Snyder (Proc. Natl. Acad. Sci. 77, 6917-6921, 1980) with the minor modification of adding the additional protease inhibitors, phenylmethane sulfonyl fluoride and o-phenanthroline. The latter two compounds have no effect on the ^125 -CCK receptor binding assay.
Male Sprague-Dawley rats (200-350 g) were sacrificed by decapitation. The whole pancreas was dissected free of fat tissue and was homogenized in 20 volumes of ice-cold 50 mM, Tris HCl (pH 7.7 at 25° C.) with a Brinkmann Polytron PT 10. The homogenates were centrifuged at 48,000 g for 10 min. Pellets were resuspended in Tris Buffer, centrifuged as above and resuspended in 200 volumes of binding assay buffer (50 mM Tris HCl, pH 7.7 at 25° C., 5 mM dithiothrietol, 0.1 mM bacitracin, 1.2 mM phenylmethane sulfonyl fluoride and 0.5 mM o-phenanthroline). […] All assays were run in duplicate or triplicate. The reaction mixtures were incubated at 37° C. for 30 minutes and centrifuged in a Beckman Microfuge (4 minutes) immediately after adding 1 ml of ice-cold incubation buffer. The supernatant was aspirated and discarded, pellets were counted with a Beckman gamma 5000. […]

The target in assay [1] is T2, CCK receptor, brain (cerebral cortex) (Cavia porcellus, UniProt H0VZC5).
T2 construct: Cerebral cortex was dissected and used as a receptor source; from tissue; host or cells: guinea pig cerebral cortex membranes
T2 sequence (H0VZC5 1-426): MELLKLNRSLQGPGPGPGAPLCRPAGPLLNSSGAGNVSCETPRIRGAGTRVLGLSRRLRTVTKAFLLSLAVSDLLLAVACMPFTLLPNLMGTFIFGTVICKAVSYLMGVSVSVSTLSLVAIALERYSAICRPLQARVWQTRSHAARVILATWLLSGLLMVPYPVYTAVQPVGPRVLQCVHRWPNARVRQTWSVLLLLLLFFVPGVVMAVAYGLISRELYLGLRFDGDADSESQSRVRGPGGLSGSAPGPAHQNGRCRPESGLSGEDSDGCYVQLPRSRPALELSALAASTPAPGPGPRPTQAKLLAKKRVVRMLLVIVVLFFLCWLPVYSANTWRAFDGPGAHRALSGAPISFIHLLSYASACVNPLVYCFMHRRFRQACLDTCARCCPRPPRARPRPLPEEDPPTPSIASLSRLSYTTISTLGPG
The assay is described as follows: CCK Receptor Binding (Brain): inhibition of 125I-CCK(-33) binding. Also noted: species or system guinea pig (Male Hartley). The following applies: guinea pig cerebral cortex membranes. How it is done: 2. CCK Receptor Binding (Brain)
CCK-33 was radiolabeled and the binding was performed according to the description for the pancreas method with modifications according to Saito et al., J. Neurochem. 37:483-490, 1981.
Male Hartley guinea pigs (300-500 g) were sacrificed by decapitation and the brains were removed and placed in ice-cold 50 mM, Tris HCl plus 7.58 g/l Trizma-7.4 (pH 7.4 at 25° C.). Cerebral cortex was dissected and used as a receptor source. Each gram of fresh guinea pig brain tissue was homogenized in 10 ml of Tris/Trizma buffer with a Brinkman polytron PT-10. The homogenates were centrifuged at 42,000 g for 15 minutes. Pellets were resuspended in Tris Buffer, centrifuged as above and resuspended in 200 volumes of binding assay buffer (10 mM N-2-hydroxyethyl-piperazine-N'-2-ethane sulfonic acid (HEPES), 5 mM MgCl2, 0.25 mg/ml bacitracin, 1 mM ethylene glycol-bis-(β-aminoethylether-N,N'-tetraadetic acid) (EGTA), and 0.4% bovine serum albumin (BSA)). […] All assays were run in duplicate or triplicate. The reaction mixtures were incubated at 25° C. for 2 hours and centrifuged in a Beckman Microfuge (4 minutes) immediately after adding 1 ml of ice-cold incubation buffer. The supernatant was aspirated and discarded, pellets were counted with a Beckman gamma 5000.

Entries after “also recorded” stand apart in the source; their conditions may differ. Square brackets hold non-standard residues; d marks the D form. Peptide text beside a SMILES is read from it. * marks the point of attachment. sY = N[C@@H](Cc1ccc(OS(=O)(=O)O)cc1)C(=O)O; Cbz = O=C(OCc1ccccc1)*; Boc = CC(C)(C)OC(=O)*

For `CSCC[C@H](NC(=O)OC(C)(C)C)C(=O)N[C@@H](CC(=O)O)C(=O)N[C@@H](Cc1ccccc1)C(N)=O` [Boc-Met-Asp-Phe-NH2] (Boc-Met-Asp-Phe-NH2), the “CCK antagonism (in words)” value in the assay with CCK receptor is recorded as “can function as CCK antagonists”. On to `CCCC(=O)Nc1nc2c(ncn2[C@@H]2O[C@@H]3COP(=O)(O)O[C@H]3[C@H]2OC(=O)CCC)c(=O)[nH]1` [dibutyryl cyclic GMP], for which, in the assay on CCK receptor, the “CCK antagonism (in words)” value is recorded as “the most potent”. Take `CCCN(CCC)C(=O)C(CCC(=O)O)NC(=O)c1ccccc1` (centres unmarked) [proglumide]: in the assay with gastrin, the “gastrin antagonism (in words)” value is recorded as “very weak in vitro antagonists”. Turning to `O=S(=O)(F)Cc1ccccc1` [phenylmethane sulfonyl fluoride], on CCK receptor, pancreas, the “effect on the 125-CCK receptor binding assay” value is recorded as “no effect”. With `c1cnc2c(c1)ccc1cccnc12` [o-phenanthroline], the “effect on the 125-CCK receptor binding assay” value on CCK receptor, pancreas is on record as “no effect”.

One may read the IC50 as the concentration that gives 50% inhibition. A lower IC50 goes with higher potency. Regarding `CN1C(=O)[C@@H](NC(=O)c2cc3cc(O)ccc3[nH]2)N=C(c2ccccc2)c2ccccc21` [Example 15, 1,3-Dihydro-3-(5-hydroxyindole-2-carbonylamino)-1-methyl-5-phenyl-2H-1,4-benzodiazepin-2-one], the half-maximal inhibitory concentration (IC50) in assay [1] was 910 nM.

On to `CSCC[C@H](N)C(=O)N[C@@H](CC(=O)O)C(=O)N[C@@H](Cc1ccccc1)C(N)=O` [Met-Asp-Phe-NH2] (H-Met-Asp-Phe-NH2), for which the “CCK antagonism (in words)” value in the assay on CCK receptor is on record as “can function as CCK antagonists”.

`CSCC[C@H](NC(=O)[C@H](Cc1ccc(OS(=O)(=O)O)cc1)NC(=O)OCc1ccccc1)C(=O)NCC(=O)N[C@@H](Cc1c[nH]c2ccccc12)C(=O)N[C@@H](CCSC)C(=O)N[C@@H](CC(=O)O)C(N)=O` [Cbz-Tyr(SO3 H)-Met-Gly-Trp-Met-Asp-NH2] (Cbz-[sY]MGWMD-NH2): in the assay with CCK receptor, the “CCK antagonism (in words)” value was “can function as CCK antagonists; also recorded: partial agonist”.

The record behind these values is US5324726A, “Benzodiazepine analogs” (Merck & Co., Inc., priority 1992, dated 1994).
